The source of these data is ChEMBL document CHEMBL4513135, “CO-ADD screening of IQOG CSIS (Spain) compounds”.

Values after ≈ are worked out from the molar mass of the structure shown.

One test has as its system HEK293. The test can be described thus: cells. Format: functional. Conditions: Homo sapiens, ATCC CRL1573, HEK293; ASSAY_TEST Inhibition of Cell Viability; detection method Resazurin; Fluorescence (ex560/em590); MEDIA DMEM with 10% FBS; plate type 384well; TC; CORNING #3712; time 18 hr. On the technique in general: Resazurin is reduced to fluorescent resorufin, in cell work by metabolically active cells.

The test system of a further test is Staphylococcus aureus. The experiment in a line: microbe, parasite or virus in culture. Particulars: ATCC 43300, 18 h, ASSAY_TEST Inhibition of Bacterial Growth, detection method Absorption (OD600), MEDIA CAMHB, plate type 384well, NBS, CORNING #3640.
The test system of another test is Escherichia coli. The test can be described thus: microbe, parasite or virus in culture. Particulars: ATCC 25922, 18 h, ASSAY_TEST Inhibition of Bacterial Growth, detection method Absorption (OD600), MEDIA CAMHB, plate type 384well, NBS, CORNING #3640.
The subject of another test is Klebsiella pneumoniae. The test can be described thus: microbe, parasite or virus in culture. Conditions: ATCC 700603, 18 h, ASSAY_TEST Inhibition of Bacterial Growth, detection method Absorption (OD600), MEDIA CAMHB, plate type 384well, NBS, CORNING #3640.
The subject of a further test is Pseudomonas aeruginosa. The test can be described thus: microbe, parasite or virus in culture. Particulars: ATCC 27853, 18 h, ASSAY_TEST Inhibition of Bacterial Growth, detection method Absorption (OD600), MEDIA CAMHB, plate type 384well, NBS, CORNING #3640.
A further test relates to Acinetobacter baumannii. The experiment in a line: microbe, parasite or virus in culture. Particulars: ATCC 19606, 18 h, ASSAY_TEST Inhibition of Bacterial Growth, detection method Absorption (OD600), MEDIA CAMHB, plate type 384well, NBS, CORNING #3640.
The test system of the next test is Candida albicans. The test can be described thus: microbe, parasite or virus in culture. Particulars: ATCC 90028, ASSAY_TEST Inhibition of Fungal Growth, detection method Absorption (OD530), plate type 384well, NBS, CORNING #3640.

Description for Acinetobacter baumannii: Antibacterial activity against Acinetobacter baumannii ATCC 19606 (CO-ADD:GN_034); MIC in CAMBH media using NBS plates, by OD600
Description for Candida albicans: Antifungal activity against Candida albicans ATCC 90028 (CO-ADD:FG_001); MIC in YNB media using NBS plates, by OD630
Description for Cryptococcus neoformans: Antifungal activity against Cryptococcus neoformans H99 ATCC 208821 (CO-ADD:FG_002); MIC in YNB media using NBS plates, by Resazurin OD(600-570)
Description for Escherichia coli: Antibacterial activity against Escherichia coli ATCC 25922 (CO-ADD:GN_001); MIC in CAMBH media using NBS plates, by OD(600)
Description for Klebsiella pneumoniae: Antibacterial activity against Klebsiella pneumoniae MDR ATCC 70063 (CO-ADD:GN_003); MIC in CAMBH media using NBS plates, by OD(600)
Description for Pseudomonas aeruginosa: Antibacterial activity against Pseudomonas aeruginosa ATCC 27853 (CO-ADD:GN_042); MIC in CAMBH media using NBS plates, by OD(600)
Description for Staphylococcus aureus: Antibacterial activity against Staphylococcus aureus MRSA ATCC 43300 (CO-ADD:GP_020); MIC in CAMBH media, using NBS plates, by OD(600)

One may read the CC50 as the concentration at which the toxic effect on the cells reaches its halfway point. Low values mean harm at low concentration, high ones better tolerance by the cells. In the test with HEK293, `CCOC(=O)C1=C(C)OC(N)=C(C#N)C1c1ccc(Cl)cc1` (stereo unspecified) registered a CC50 greater than 32 µg/mL. Further, the MIC in the test with Cryptococcus neoformans, in the test with Staphylococcus aureus, in the test with Escherichia coli, in the test with Klebsiella pneumoniae, in the test on Pseudomonas aeruginosa and against Acinetobacter baumannii was greater than 32 µg/mL throughout. This compound had an MIC in the test with Candida albicans of 32 µg/mL (≈ 100 µM).
`N#Cc1c(N)nc(Sc2ccccc2)c(C#N)c1-c1ccccc1` displayed a CC50 in the test with HEK293 greater than 32 µg/mL. In addition, the MIC in the test with Cryptococcus neoformans, with Staphylococcus aureus, against Escherichia coli, against Klebsiella pneumoniae, in the test with Pseudomonas aeruginosa and against Acinetobacter baumannii was greater than 32 µg/mL throughout. In the test on Candida albicans, this compound had an MIC greater than 32 µg/mL.
For `CC#CCN(C)Cc1cc2cc(OCc3ccccc3)ccc2[nH]1.O=C(O)C(=O)O`, the CC50 in the test on HEK293 is greater than 32 µg/mL. Moreover, the MIC against Cryptococcus neoformans, with Staphylococcus aureus, in the test with Escherichia coli, against Klebsiella pneumoniae, with Pseudomonas aeruginosa and with Acinetobacter baumannii was greater than 32 µg/mL throughout. The MIC in the test with Candida albicans is greater than 32 µg/mL.
In turn, `Oc1ccc(CCl)c2cccnc12` showed a CC50 in the test with HEK293 of 5.81 µg/mL (≈ 30 µM). The MIC is 16 µg/mL (≈ 82.6 µM) against Cryptococcus neoformans; greater than 32 µg/mL in the test on Staphylococcus aureus; greater than 32 µg/mL against Escherichia coli; greater than 32 µg/mL with Klebsiella pneumoniae; 32 µg/mL (≈ 165 µM) against Pseudomonas aeruginosa; greater than 32 µg/mL in the test on Acinetobacter baumannii. Further, in the test with Candida albicans, the MIC was greater than 32 µg/mL.
Regarding `N#Cc1c(NCCC2CCN(Cc3ccccc3)CC2)nc(NCCC2CCN(Cc3ccccc3)CC2)c(C#N)c1-c1ccccc1`, in the test with HEK293, the CC50 is greater than 32 µg/mL. Further, the MIC in the test on Cryptococcus neoformans, with Staphylococcus aureus, against Escherichia coli, in the test with Klebsiella pneumoniae, with Pseudomonas aeruginosa and with Acinetobacter baumannii was greater than 32 µg/mL throughout. Moreover, the MIC against Candida albicans was greater than 32 µg/mL.
Turning to `N#Cc1c(N)[n+]([O-])c2ccccc2[n+]1[O-]`, in the test with HEK293, the CC50 was greater than 32 µg/mL. Also, the MIC is greater than 32 µg/mL with Cryptococcus neoformans; greater than 32 µg/mL against Staphylococcus aureus; 16 µg/mL (≈ 79.1 µM) in the test on Escherichia coli; greater than 32 µg/mL against Klebsiella pneumoniae; greater than 32 µg/mL in the test on Pseudomonas aeruginosa; greater than 32 µg/mL in the test on Acinetobacter baumannii. The compound also had an MIC with Candida albicans greater than 32 µg/mL.
`N#CC1=C(N)Oc2c(ccc3ccccc23)C1c1ccc([N+](=O)[O-])cc1` (stereo unspecified) came in with a CC50 in the test on HEK293 of 0.259 µg/mL (≈ 0.754 µM). The MIC in the test on Cryptococcus neoformans, in the test with Staphylococcus aureus, in the test with Escherichia coli, in the test with Klebsiella pneumoniae, in the test with Pseudomonas aeruginosa and in the test with Acinetobacter baumannii was greater than 32 µg/mL in each case. Also, the MIC with Candida albicans is greater than 32 µg/mL.
Regarding `C#CCN(C)c1nc(NCCCC2CCN(Cc3ccccc3)CC2)c(C#N)c(-c2ccccc2)c1C#N.Cl`, the CC50 in the test on HEK293 amounted to 8.06 µg/mL. Moreover, the MIC in the test on Cryptococcus neoformans was 32 µg/mL; with Staphylococcus aureus, greater than 32 µg/mL; with Escherichia coli, greater than 32 µg/mL; in the test with Klebsiella pneumoniae it was greater than 32 µg/mL; with Pseudomonas aeruginosa it was greater than 32 µg/mL; with Acinetobacter baumannii, greater than 32 µg/mL. The compound further gave an MIC in the test with Candida albicans greater than 32 µg/mL.
`Cl.Nc1c2c(nc3[nH]c4ccccc4c13)CCCC2` came in with a CC50 in the test with HEK293 of 4.74 µg/mL. In addition, the MIC in the test with Cryptococcus neoformans was greater than 32 µg/mL; in the test with Staphylococcus aureus, greater than 32 µg/mL; in the test with Escherichia coli it was greater than 32 µg/mL; against Klebsiella pneumoniae it was greater than 32 µg/mL; in the test with Pseudomonas aeruginosa, 16 µg/mL; in the test with Acinetobacter baumannii it was greater than 32 µg/mL. In the test on Candida albicans, this compound yielded an MIC greater than 32 µg/mL.
`COc1ccc(OC)c2nc(Cl)c(C=O)cc12` returned a CC50 in the test on HEK293 greater than 32 µg/mL. Further, the MIC against Cryptococcus neoformans, in the test with Staphylococcus aureus, against Escherichia coli, in the test with Klebsiella pneumoniae, in the test on Pseudomonas aeruginosa and against Acinetobacter baumannii was greater than 32 µg/mL in each case. In the test on Candida albicans, this compound returned an MIC greater than 32 µg/mL.
For the compound `Cn1ccnc1C1c2c(nc3c(c2N)CCCCC3)Oc2ccc3ccccc3c21` (stereo unspecified), the half-maximal cytotoxic concentration (CC50) with HEK293 was greater than 32 µg/mL. The MIC with Cryptococcus neoformans, with Staphylococcus aureus, in the test with Escherichia coli, in the test with Klebsiella pneumoniae, in the test on Pseudomonas aeruginosa and against Acinetobacter baumannii was greater than 32 µg/mL throughout. Besides, in the test on Candida albicans, the MIC was greater than 32 µg/mL.
In the case of `Nc1c2c(nc3c1CC(c1ccccc1)C(=O)N3)CCCC2` (stereo unspecified), half-maximal cytotoxicity in the test on HEK293 (CC50) was put at 11.3 µg/mL (≈ 38.5 µM). The MIC in the test on Cryptococcus neoformans, against Staphylococcus aureus, in the test with Escherichia coli, with Klebsiella pneumoniae, against Pseudomonas aeruginosa and with Acinetobacter baumannii was greater than 32 µg/mL in each case. The compound also displayed an MIC against Candida albicans greater than 32 µg/mL.
On to `N#CC(C#N)=Cc1cccc([N+](=O)[O-])c1`, for which the CC50 in the test with HEK293 was greater than 32 µg/mL. The MIC against Cryptococcus neoformans is greater than 32 µg/mL; against Staphylococcus aureus, greater than 32 µg/mL; with Escherichia coli, greater than 32 µg/mL; against Klebsiella pneumoniae it was greater than 32 µg/mL; in the test on Pseudomonas aeruginosa, 32 µg/mL (≈ 161 µM); against Acinetobacter baumannii, greater than 32 µg/mL. Also, the MIC in the test on Candida albicans was greater than 32 µg/mL.
In the test with HEK293, `COc1nc2n[nH]c(N)c2c(-c2ccccc2)c1C#N` had a CC50 of 5.47 µg/mL (≈ 20.6 µM). Besides, the MIC in the test with Cryptococcus neoformans, against Staphylococcus aureus, against Escherichia coli, in the test with Klebsiella pneumoniae, against Pseudomonas aeruginosa and against Acinetobacter baumannii was greater than 32 µg/mL throughout. In the test with Candida albicans, this compound gave an MIC greater than 32 µg/mL.
In the test with HEK293, `CCOC(=O)C(=Cc1ccccc1)C(C)=O` yielded a CC50 of 13.5 µg/mL (≈ 61.9 µM). Further, the MIC is 8 µg/mL (≈ 36.7 µM) against Cryptococcus neoformans; greater than 32 µg/mL in the test with Staphylococcus aureus; greater than 32 µg/mL against Escherichia coli; greater than 32 µg/mL in the test with Klebsiella pneumoniae; greater than 32 µg/mL in the test on Pseudomonas aeruginosa; greater than 32 µg/mL against Acinetobacter baumannii. In the test with Candida albicans, the MIC amounted to 16 µg/mL (≈ 73.3 µM).
For the compound `CCOC(=O)c1cc2cc(OCCCC3CCN(Cc4ccccc4)CC3)ccc2[nH]1.Cl`, in the test with HEK293, the CC50 was 16.5 µg/mL. The MIC with Cryptococcus neoformans, against Staphylococcus aureus, in the test on Escherichia coli, in the test on Klebsiella pneumoniae, against Pseudomonas aeruginosa and against Acinetobacter baumannii was greater than 32 µg/mL each time. The MIC with Candida albicans is greater than 32 µg/mL.
In turn, `CCOC(=O)c1c(C)nc(NCCCCC2CCN(Cc3ccccc3)CC2)c(C#N)c1-c1ccccc1` came in with a CC50 in the test with HEK293 of 18.8 µg/mL (≈ 36.8 µM). Besides, the MIC against Cryptococcus neoformans, with Staphylococcus aureus, against Escherichia coli, in the test on Klebsiella pneumoniae, in the test on Pseudomonas aeruginosa and in the test with Acinetobacter baumannii was greater than 32 µg/mL throughout. For the same compound, the MIC against Candida albicans was greater than 32 µg/mL.
With `CC(C)(C)OC(=O)n1c(COC(=O)NC2CCN(Cc3ccccc3)CC2)cc2cc(OCc3ccccc3)ccc21.O=C(O)C(=O)O`, half-maximal cytotoxicity in the test on HEK293 (CC50) was put at 9.19 µg/mL. Moreover, the MIC in the test with Cryptococcus neoformans was 16 µg/mL; in the test on Staphylococcus aureus it was greater than 32 µg/mL; against Escherichia coli, greater than 32 µg/mL; in the test on Klebsiella pneumoniae, greater than 32 µg/mL; in the test with Pseudomonas aeruginosa, greater than 32 µg/mL; in the test on Acinetobacter baumannii it was greater than 32 µg/mL. Moreover, the MIC with Candida albicans was determined as 32 µg/mL.
As for `C#CCNCc1cc2cc(OCc3ccccc3)ccc2[nH]1.Cl`, in the test on HEK293, the CC50 stood at 4.04 µg/mL. Besides, the MIC with Cryptococcus neoformans, in the test on Staphylococcus aureus, in the test on Escherichia coli, against Klebsiella pneumoniae, in the test with Pseudomonas aeruginosa and with Acinetobacter baumannii was greater than 32 µg/mL throughout. In addition, in the test on Candida albicans, the MIC is greater than 32 µg/mL.
`COc1ccc(CCl)c2cccnc12` came in with a CC50 in the test on HEK293 greater than 32 µg/mL. Besides, the MIC in the test with Cryptococcus neoformans, in the test on Staphylococcus aureus, in the test with Escherichia coli, in the test on Klebsiella pneumoniae, against Pseudomonas aeruginosa and in the test on Acinetobacter baumannii was greater than 32 µg/mL throughout. In the test with Candida albicans, this compound registered an MIC of 32 µg/mL (≈ 154 µM).
As for `Cl.Oc1ccc(CCl)c2cccnc12`, it took 2.26 µg/mL to reach half-maximal cytotoxicity with HEK293 (CC50). Moreover, the MIC in the test on Cryptococcus neoformans is 1 µg/mL; against Staphylococcus aureus, 4 µg/mL; against Escherichia coli, greater than 32 µg/mL; in the test on Klebsiella pneumoniae it was greater than 32 µg/mL; against Pseudomonas aeruginosa, 32 µg/mL; in the test with Acinetobacter baumannii, greater than 32 µg/mL. The compound further gave an MIC in the test on Candida albicans of 16 µg/mL.
On to `CC1=C(C(=O)OC(C)(C)C)C(c2ccccc2)C(C#N)=C(N)O1` (stereo unspecified), for which, in the test with HEK293, the 50% cytotoxic concentration (CC50) was greater than 32 µg/mL. Besides, the MIC with Cryptococcus neoformans, in the test on Staphylococcus aureus, against Escherichia coli, with Klebsiella pneumoniae, with Pseudomonas aeruginosa and against Acinetobacter baumannii was greater than 32 µg/mL throughout. The MIC with Candida albicans turned out to be 32 µg/mL (≈ 102 µM).
